Reference: PubChem BioAssay AID2060884 (Molecular Pharmacology Branch, DTP, NCI, 2025)

Tested on: NCI-H929 complex spheroids, viability % test/control
Assay: Anticancer human tumor NCI-H929 cell line growth inhibition [RAS];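 note: compound exposure lasted seven days before viability was read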;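 for viability, T/C: 100% = DMSO vehicle control viability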
Conditions: for IC50: curve of first compound; for viability, T/C: stronger effect = lower value
Procedure, shortened: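 Tumour cells grown as complex spheroids with HUVEC endothelial cells and mesenchymal stem cells, treated with RAS pathway inhibitor combinations. Each agent spans half-log steps from near clinical Cmax, or 10 microM where Cmax is unknown.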

[1] = second compound 0.000949 µM, first compound 0.0316 µM
[2] = second compound 0.000949 µM, first compound 0.1 µM
[3] = second compound 0.000949 µM, first compound 0.316 µM
[4] = second compound 0.000949 µM, first compound 1 µM
[5] = second compound 0.003 µM, first compound 0.0316 µM
[6] = second compound 0.003 µM, first compound 0.1 µM
[7] = second compound 0.003 µM, first compound 0.316 µM
[8] = second compound 0.003 µM, first compound 1 µM
[9] = second compound 0.00949 µM, first compound 0.0316 µM
[10] = second compound 0.00949 µM, first compound 0.1 µM
[11] = second compound 0.00949 µM, first compound 0.316 µM
[12] = second compound 0.00949 µM, first compound 1 µM
[13] = second compound 0.03 µM, first compound 0.0316 µM
[14] = second compound 0.03 µM, first compound 0.1 µM
[15] = second compound 0.03 µM, first compound 0.316 µM
[16] = second compound 0.03 µM, first compound 1 µM
[17] = second compound 0.0949 µM, first compound 0.0316 µM
[18] = second compound 0.0949 µM, first compound 0.1 µM
[19] = second compound 0.0949 µM, first compound 0.316 µM
[20] = second compound 0.0949 µM, first compound 1 µM
[21] = second compound 0.3 µM, first compound 0.0316 µM
[22] = second compound 0.3 µM, first compound 0.1 µM
[23] = second compound 0.3 µM, first compound 0.316 µM
[24] = second compound 0.3 µM, first compound 1 µM

Structure (SMILES): Nc1ccn(C2OC(CO)C(O)C2(F)F)c(=O)n1 (centres undefined) + CCn1c(-c2cc(N3CCN(C)CC3)cnc2C(C)OC)c2c3cc(ccc31)-c1csc(n1)CC(NC(=O)C1CC1C)C(=O)N1CCCC(N1)C(=O)OCC(C)(C)C2
- IC50 (second compound 0.000949 µM): 7.3 nM
- IC50 (second compound 0.003 µM): 6.69 nM
- IC50 (second compound 0.00949 µM): 6.61 nM
- IC50 (second compound 0.03 µM): < 3.16 nM
- IC50 (second compound 0.0949 µM): < 3.16 nM
- IC50 (second compound 0.3 µM): < 3.16 nM
- viability, T/C (second compound 0.000949 µM, first compound 0.00316 µM): 110%
- viability, T/C (second compound 0.000949 µM, first compound 0.01 µM): 27.6%
- viability, T/C [1]: 2.05%
- viability, T/C [2]: 2.16%
- viability, T/C [3]: 1.6%
- viability, T/C [4]: 1.6%
- viability, T/C (second compound 0.003 µM, first compound 0.00316 µM): 105%
- viability, T/C (second compound 0.003 µM, first compound 0.01 µM): 20.4%
- viability, T/C [5]: 2.07%
- viability, T/C [6]: 1.75%
- viability, T/C [7]: 1.35%
- viability, T/C [8]: 1.62%
- viability, T/C (second compound 0.00949 µM, first compound 0.00316 µM): 127%
- viability, T/C (second compound 0.00949 µM, first compound 0.01 µM): 6.62%
- viability, T/C [9]: 1.99%
- viability, T/C [10]: 2.73%
- viability, T/C [11]: 1.58%
- viability, T/C [12]: 1.35%
- viability, T/C (second compound 0.03 µM, first compound 0.00316 µM): 15.2%
- viability, T/C (second compound 0.03 µM, first compound 0.01 µM): 3.12%
- viability, T/C [13]: 1.8%
- viability, T/C [14]: 1.5%
- viability, T/C [15]: 1.42%
- viability, T/C [16]: 1.24%
- viability, T/C (second compound 0.0949 µM, first compound 0.00316 µM): 2.68%
- viability, T/C (second compound 0.0949 µM, first compound 0.01 µM): 1.67%
- viability, T/C [17]: 1.66%
- viability, T/C [18]: 1.4%
- viability, T/C [19]: 1.18%
- viability, T/C [20]: 1.05%
- viability, T/C (second compound 0.3 µM, first compound 0.00316 µM): 1.41%
- viability, T/C (second compound 0.3 µM, first compound 0.01 µM): 1.1%
- viability, T/C [21]: 1.1%
- viability, T/C [22]: 1.32%
- viability, T/C [23]: 1.02%
- viability, T/C [24]: 0.86%

Structure (SMILES): CC(=O)OC12COC1CC(O)C1(C)C(=O)C(O)C3=C(C)C(OC(=O)C(O)C(NC(=O)OC(C)(C)C)c4ccccc4)CC(O)(C(OC(=O)c4ccccc4)C21)C3(C)C (centres undefined) + CCn1c(-c2cccnc2C(C)OC)c2c3cc(ccc31)N1CCOC(CC(NC(=O)C(C(C)C)N(C)C(=O)C3(F)CCN(C(=O)C#CC(C)(C)N(C)C)CC3)C(=O)N3CCCC(N3)C(=O)OCC(C)(C)C2)C1
- IC50 (second compound 0.000949 µM): < 31.6 nM
- IC50 (second compound 0.003 µM): < 31.6 nM
- IC50 (second compound 0.00949 µM): < 31.6 nM
- IC50 (second compound 0.03 µM): < 31.6 nM
- IC50 (second compound 0.0949 µM): < 31.6 nM
- IC50 (second compound 0.3 µM): < 31.6 nM
- viability, T/C [1]: 0.74%
- viability, T/C [2]: 0.57%
- viability, T/C [3]: 0.52%
- viability, T/C [4]: 0.54%
- viability, T/C (second compound 0.000949 µM, first compound 3.16 µM): 0.6%
- viability, T/C (second compound 0.000949 µM, first compound 10 µM): 0.65%
- viability, T/C [5]: 0.76%
- viability, T/C [6]: 0.89%
- viability, T/C [7]: 0.7%
- viability, T/C [8]: 0.54%
- viability, T/C (second compound 0.003 µM, first compound 3.16 µM): 0.6%
- viability, T/C (second compound 0.003 µM, first compound 10 µM): 0.71%
- viability, T/C [9]: 0.76%
- viability, T/C [10]: 0.82%
- viability, T/C [11]: 0.62%
- viability, T/C [12]: 0.64%
- viability, T/C (second compound 0.00949 µM, first compound 3.16 µM): 0.66%
- viability, T/C (second compound 0.00949 µM, first compound 10 µM): 0.68%
- viability, T/C [13]: 0.73%
- viability, T/C [14]: 0.53%
- viability, T/C [15]: 0.75%
- viability, T/C [16]: 0.63%
- viability, T/C (second compound 0.03 µM, first compound 3.16 µM): 0.5%
- viability, T/C (second compound 0.03 µM, first compound 10 µM): 0.52%
- viability, T/C [17]: 0.63%
- viability, T/C [18]: 0.57%
- viability, T/C [19]: 0.51%
- viability, T/C [20]: 0.63%
- viability, T/C (second compound 0.0949 µM, first compound 3.16 µM): 0.58%
- viability, T/C (second compound 0.0949 µM, first compound 10 µM): 0.72%
- viability, T/C [21]: 0.63%
- viability, T/C [22]: 0.68%
- viability, T/C [23]: 0.63%
- viability, T/C [24]: 0.6%
- viability, T/C (second compound 0.3 µM, first compound 3.16 µM): 0.65%
- viability, T/C (second compound 0.3 µM, first compound 10 µM): 0.71%
